Laboratory results from the kinase profiling compilation of Christmann-Franck et al. (2016).

Experiments:
Assay in all cases: KINOMEscan competition binding
Conditions in all cases: compound 10.0 µM
[1] = tested on: KIT (human), P10721 [L576P]
[2] = tested on: ABL1 (human), P00519 [Y253F]
[3] = tested on: EGFR (human), P00533 [T790M]
[4] = tested on: EGFR (human), P00533 [752-759 del]
[5] = tested on: FLT3 (human), P36888 [D835H]
[6] = tested on: EGFR (human), P00533 [747-751 del / S ins]
[7] = tested on: FLT3 (human), P36888 [R834Q]
[8] = tested on: EGFR (human), P00533 [T790M/L858R]
[9] = tested on: RET (human), P07949 [M918T]
RET (human), P07949 [M918T], sequence (P07949 whole entry M918T, looked up): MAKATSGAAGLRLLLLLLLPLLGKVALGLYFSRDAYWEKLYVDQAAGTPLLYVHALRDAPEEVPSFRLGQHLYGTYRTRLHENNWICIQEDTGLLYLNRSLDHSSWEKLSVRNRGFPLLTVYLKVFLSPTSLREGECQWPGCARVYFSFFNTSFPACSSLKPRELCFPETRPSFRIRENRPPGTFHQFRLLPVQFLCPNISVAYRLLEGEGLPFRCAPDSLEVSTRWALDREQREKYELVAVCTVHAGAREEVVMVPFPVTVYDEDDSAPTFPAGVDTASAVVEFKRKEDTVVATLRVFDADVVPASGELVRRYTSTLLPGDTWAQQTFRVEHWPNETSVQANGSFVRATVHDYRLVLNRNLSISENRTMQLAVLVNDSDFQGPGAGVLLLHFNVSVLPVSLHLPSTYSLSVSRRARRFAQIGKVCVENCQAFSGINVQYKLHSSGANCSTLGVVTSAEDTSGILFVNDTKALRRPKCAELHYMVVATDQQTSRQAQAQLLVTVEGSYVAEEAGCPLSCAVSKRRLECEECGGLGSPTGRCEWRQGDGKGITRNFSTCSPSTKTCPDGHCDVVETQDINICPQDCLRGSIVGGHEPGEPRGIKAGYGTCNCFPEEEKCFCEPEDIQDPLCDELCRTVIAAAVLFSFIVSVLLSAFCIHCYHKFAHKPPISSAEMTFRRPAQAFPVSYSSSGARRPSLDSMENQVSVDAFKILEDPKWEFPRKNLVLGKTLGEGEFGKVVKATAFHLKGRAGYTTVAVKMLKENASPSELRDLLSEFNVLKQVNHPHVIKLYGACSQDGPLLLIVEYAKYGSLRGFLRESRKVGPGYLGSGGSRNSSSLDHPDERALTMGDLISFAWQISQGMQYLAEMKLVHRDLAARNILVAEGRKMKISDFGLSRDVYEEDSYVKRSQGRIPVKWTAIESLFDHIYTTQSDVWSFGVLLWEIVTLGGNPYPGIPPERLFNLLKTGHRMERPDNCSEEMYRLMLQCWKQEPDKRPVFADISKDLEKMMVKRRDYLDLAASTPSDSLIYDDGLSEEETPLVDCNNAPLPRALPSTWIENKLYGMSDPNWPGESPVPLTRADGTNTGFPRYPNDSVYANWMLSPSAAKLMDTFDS

[10] = tested on: MET (human), P08581 [Y1235D]
[11] = tested on: KIT (human), P10721 [V559D/V654A]
KIT (human), P10721 [V559D/V654A], sequence (P10721 whole entry V559D/V654A, looked up): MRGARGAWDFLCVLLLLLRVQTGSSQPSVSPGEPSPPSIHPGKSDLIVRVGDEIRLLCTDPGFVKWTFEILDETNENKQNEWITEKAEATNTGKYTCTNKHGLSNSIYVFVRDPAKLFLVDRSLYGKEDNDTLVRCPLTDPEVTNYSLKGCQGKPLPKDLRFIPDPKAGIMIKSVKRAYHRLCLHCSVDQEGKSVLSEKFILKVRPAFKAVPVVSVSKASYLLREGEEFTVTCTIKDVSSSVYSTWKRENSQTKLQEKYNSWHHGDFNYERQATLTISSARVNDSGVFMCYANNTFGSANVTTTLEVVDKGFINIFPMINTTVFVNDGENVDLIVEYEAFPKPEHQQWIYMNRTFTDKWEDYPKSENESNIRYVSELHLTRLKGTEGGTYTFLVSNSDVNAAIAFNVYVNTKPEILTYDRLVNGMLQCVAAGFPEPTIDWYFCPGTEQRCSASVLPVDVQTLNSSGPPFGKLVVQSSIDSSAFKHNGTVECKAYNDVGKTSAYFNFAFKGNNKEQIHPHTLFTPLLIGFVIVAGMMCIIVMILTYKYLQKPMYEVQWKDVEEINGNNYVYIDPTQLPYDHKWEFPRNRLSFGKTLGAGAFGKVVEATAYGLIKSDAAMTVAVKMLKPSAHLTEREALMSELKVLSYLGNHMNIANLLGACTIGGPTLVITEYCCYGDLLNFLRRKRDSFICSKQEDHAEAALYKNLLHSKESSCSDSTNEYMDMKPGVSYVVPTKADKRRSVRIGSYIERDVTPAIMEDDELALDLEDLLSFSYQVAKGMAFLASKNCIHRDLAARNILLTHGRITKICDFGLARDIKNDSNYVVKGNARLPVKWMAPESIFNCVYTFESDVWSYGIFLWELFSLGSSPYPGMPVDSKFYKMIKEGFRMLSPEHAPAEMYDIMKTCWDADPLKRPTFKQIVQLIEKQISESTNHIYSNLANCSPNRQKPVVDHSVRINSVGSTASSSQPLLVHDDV

[12] = tested on: RET (human), P07949 [V804M]
RET (human), P07949 [V804M], sequence (P07949 whole entry V804M, looked up): as the sequence (P07949 whole entry M918T, looked up) above, with V804M, T918M counted along it

KIT (human), P10721 [L576P], sequence (P10721 whole entry L576P, looked up): as the sequence (P10721 whole entry V559D/V654A, looked up) above, with D559V, L576P, A654V counted along it

kinase still bound, per cent of control [1] [%]	kinase still bound, per cent of control [2] [%]	kinase still bound, per cent of control [3] [%]	kinase still bound, per cent of control [4] [%]	kinase still bound, per cent of control [5] [%]	kinase still bound, per cent of control [6] [%]	kinase still bound, per cent of control [7] [%]	kinase still bound, per cent of control [8] [%]	kinase still bound, per cent of control [9] [%]	kinase still bound, per cent of control [10] [%]	kinase still bound, per cent of control [11] [%]	kinase still bound, per cent of control [12] [%]	Compound
17	84	86	87	21	79	58	97	100	14	42	100	N#Cc1cc(-c2ccnc(Nc3ccc(-n4cnc(-c5cccnc5)n4)cc3)n2)cc(N2CCOCC2)c1
75		77	70	87	51	78	100	79	100	100	100	O=C(NOC[C@H](O)CO)c1ccc(F)c(F)c1Nc1ccc(I)cc1F
95	100	100	100	27	100	94	99	100	78	96	100	Cc1cc([C@@H](C)Nc2ccccc2C(=O)O)c2nc(N3CCOCC3)cc(=O)n2c1
0	28			4		14		0.2	30		5.5	CCN(CCO)CCCOc1ccc2c(Nc3cc(CC(=O)Nc4cccc(F)c4)[nH]n3)ncnc2c1
33	0	43	74	5.3	77	37	86	0.55	77	96	0.15	CN(C)C/C=C/C(=O)Nc1cccc(Nc2ncc3c(n2)N(C)c2ccccc2C(=O)N3C)c1
2.3	63	100	100	100	100	100	97	100	100	23	100	C=CC(=O)Nc1cc(NC(=O)c2ccc(C)c(NC(=O)c3ccno3)c2)cc(C(F)(F)F)c1
100	98	100	89	99	91	100	100	100	100	94	100	COc1cc(N2CCN(C)CC2)ccc1Nc1nc(N)c(C(=O)c2c(Cl)cccc2Cl)s1
33	100			83		68		100	88	100	88	N#C/C(=C1/Nc2ccccc2S1)c1ccnc(NCCc2cccnc2)n1
51	87	100	70	16	67	32	100	79	98	100	100	Nc1ccc(-c2ccc3ncc4ccc(=O)n(-c5cccc(C(F)(F)F)c5)c4c3c2)cn1
0			71		78	100	100	28	78	26	91	CCCS(=O)(=O)Nc1ccc(F)c(C(=O)c2c[nH]c3ncc(-c4ccc(Cl)cc4)cc23)c1F
79	95			84		88		95	71	100	92	N#Cc1c(NC(=O)c2cccc3ccccc23)sc2c1CCCC2
6.6	81	65	35	40	50	100	98	100	72	5.7	100	O=C1Nc2ccc(I)cc2/C1=C/c1cc(Br)c(O)c(Br)c1
81	97	27	53	59	41	100	68	100	100	100	100	C=CC(=O)Nc1ccc(C(=O)c2sc(Nc3ccc(N4CCN(C)CC4)cc3OC)nc2N)cc1
				94		100		100	86		91	CCOc1cc2ncc(C#N)c(Nc3ccc(OCc4ccccn4)c(Cl)c3)c2cc1NC(=O)/C=C/CN(C)C
24	59	39	87	22		61	60		58		14	CC(=O)c1c(C)c2cnc(Nc3ccc(N4CCNCC4)cn3)nc2n(C2CCCC2)c1=O
	100	50	100	100	100	100	100	100	100	100	100	Cc1ccc2nc(NCCN)c3ncc(C)n3c2c1
60		50	34			100		54	51	60	89	O=C(O)c1ccc(Nc2ncc3c(n2)-c2ccc(Cl)cc2C(c2c(F)cccc2F)=NC3)cc1

Compound	kinase still bound, per cent of control [1] [%]	kinase still bound, per cent of control [2] [%]	kinase still bound, per cent of control [3] [%]	kinase still bound, per cent of control [4] [%]	kinase still bound, per cent of control [5] [%]	kinase still bound, per cent of control [6] [%]	kinase still bound, per cent of control [7] [%]	kinase still bound, per cent of control [8] [%]	kinase still bound, per cent of control [9] [%]	kinase still bound, per cent of control [10] [%]	kinase still bound, per cent of control [11] [%]	kinase still bound, per cent of control [12] [%]
COc1cc2c(Nc3ccc(NC(=O)c4ccccc4)cc3)ncnc2cc1OCCCN1CCOCC1	0	35	42	14	13	26	34	85	0.1		5.8	12
